Reference: patent US11564904B2, “Gingko diterpene lactone composition” (Jiangsu Kanion Pharmaceutical Co., Ltd., priority 2017, dated 2023)

Tests used:
[1] = tested on: ADP-induced platelet aggregation; assay: In vitro ADP-induced platelet aggregation rate of rabbits; type: cell-based, New Zealand white rabbits; conditions: compositions 9.26 μg/ml, nimodipine 0.05 μg/ml
Experimental: (§1) Rabbits were treated with procaine by local anesthesia, carotid arterial cannulation and bleeding. […] Incubation was performed for 5 min, then 10 μl of 146 μg/ml ADP and 10 μl of 10 μg/ml PAF were added in turn. […] Aggregation inhibition rate (%)=(maximum aggregation rate of blank control group−maximum aggregation rate of administration group)/maximum aggregation rate of blank control group×100%. The experimental data was expressed as x±s and analyzed by SPSS 17.0 statistical software. The comparison of means between multiple groups was performed by one-way analysis of variance. The comparison of sample means between two groups was performed by q test. P<0.05 was considered statistically significant.

[2] = tested on: PAF-induced platelet aggregation; assay: In vitro PAF-induced platelet aggregation rate of rabbits; type: cell-based, New Zealand white rabbits; conditions: compositions 9.26 μg/ml, nimodipine 0.05 μg/ml
Experimental: as §1

[3] = tested on: right middle cerebral artery occlusion (MCAO) model; assay: Focal cerebral ischemia-reperfusion injury (MCAO) model in rats; type: in vivo, SD rats; conditions: nimodipine 10.8 mg/kg, x ± s, n = 10
[4] = ADP 5.4 μg/ml, rabbit PRP, x ± s, n = 10
[5] = PAF 0.37 μg/ml, rabbit PRP, x ± s, n = 10
[6] = serum 24 hours after reperfusion, compositions 2.4 g·kg^−1 i.v.

COCCOC(=O)C1=C(C)NC(C)=C(C(=O)OC(C)C)C1c1cccc([N+](=O)[O-])c1 (stereo not shown) [Nimodipine]
Platelet aggregation rate 1 min [1, 4]: 26.46 ± 4.41 | Platelet aggregation rate 5 min [1, 4]: 38.33 ± 5.80 | Platelet aggregation rate Max [1, 4]: 41.85 ± 4.87 | inhibition at 0.05 µg/mL ([1]; Oryctolagus cuniculus, Platelet, ADP-induced, from maximum aggregation rate vs blank control): 16% | inhibition at 0.05 µg/mL ([2]; Oryctolagus cuniculus, Platelet, PAF-induced, from maximum aggregation rate vs blank control): 27% | Platelet aggregation rate 1 min [2, 5]: 27.13 ± 2.06 | Platelet aggregation rate 5 min [2, 5]: 42.18 ± 9.73 | Platelet aggregation rate Max [2, 5]: 48.08 ± 5.82 | Infarct size % ([3]; TTC staining 24 hours after re-perfusion, compositions 2.4 g·kg^−1 i.v.): 15.49 ± 5.94% | BWC % ([3]; brain water content 24 hours after re-perfusion, compositions 2.4 g·kg^−1 i.v.): 68.36 ± 8.97% | Neurologic score ([3]; rat MCAO, 3 h ischemia, after reperfusion, compositions 2.4 g·kg^−1 tail vein injection): 2.70 ± 0.95 | MDA/nmol* mg^−1 [3, 6]: 5.79 ± 1.75 nmol/mg | SOD/U*mg^−1 [3, 6]: 26.94 ± 4.37 U*mg^−1
